Holding throughout (assay): NCI-60 cell line screen, 48 h
For experiment [1], the system named is LOX IMVI melanoma.
In experiment [2] the test system is PC-3 prostate.
The test system of experiment [3] is U251 CNS.
Experiment [4] has as its system OVCAR-5 ovarian.
For experiment [5], the system named is SK-MEL-28 melanoma.
Experiment [6] concerns HOP-62 NSCLC.
Experiment [7] has as its system SW-620 colon.
The subject of experiment [8] is HCT-15 colon.
Experiment [9] has as its system SK-OV-3 ovarian.
Experiment [10] concerns A498 renal.

TGI and GI50 data for 22 compounds are collected here from PubChem BioAssay (NCI).

Values joined by “and” are separate entries in the source; they are usually repeats but may differ in a detail not shown here. Equal entries are not always repeated.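 Cells were grown in 96-well plates and exposed to each compound for 48 hours at five concentrations; endpoints were interpolated linearly between bracketing concentrations, or set to the highest concentration if not reached. Here, GI50 denotes the concentration required for 50% inhibition of growth. The concentration for full growth arrest is given as TGI.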

Regarding `CC(C)c1cc2c(cc1S(=O)(=O)O)[C@@]1(C)CCC[C@@](C)(C(=O)O)C1CC2` (stereo not given in full), the TGI in experiment [1], in experiment [2], in experiment [3], in experiment [4], in experiment [5] and in experiment [6] was more than 100 µM throughout. Also, the TGI in experiment [7], in experiment [8], in [9] and in experiment [10] was more than 100 µM throughout.

For the compound `Cc1ccc(-c2csc(=Nc3ccccc3)n2NC(=O)c2ccncc2)cc1`, the TGI in experiment [1] was more than 100 µM; in experiment [2], more than 100 µM; in experiment [3], more than 31.6 µM; in experiment [4], more than 100 µM; in [5], more than 100 µM; in experiment [6], more than 100 µM. Moreover, the TGI in experiment [7], in [8], in [9] and in experiment [10] was more than 100 µM each time.

As to `Cc1oc2c(cc(O)c3cc(O)ccc32)c2cccc1-2`, the TGI in experiment [1], in experiment [2], in [3], in [4], in experiment [5] and in experiment [6] was more than 100 µM each time. The TGI in experiment [7], in experiment [8], in experiment [9] and in [10] was more than 100 µM in each case.

Regarding `Oc1ccc2c(c1)c1c(n2CCN2CCOCC2)-c2ccccc2CC1`, the TGI in experiment [1] is 57.8 µM; in experiment [2], more than 100 µM; in experiment [3], more than 100 µM; in experiment [4], 60.5 µM; in experiment [5], 55.6 µM; in [6], 59.2 µM. Moreover, the TGI was more than 100 µM in experiment [7], 66.1 µM in experiment [8], more than 100 µM in experiment [9] and 52.6 µM in experiment [10].

On to `O=C(OCc1ccccc1)N1CCNCCN(C(=O)OCc2ccccc2)CCNCC1`, for which the TGI in experiment [1] was 27.5 µM; in [2], more than 100 µM; in [3], 61 µM; in [4] it was more than 100 µM; in experiment [5], 45.3 µM; in [6], 33.4 µM. Besides, the TGI in [7], in [8], in experiment [9] and in experiment [10] was more than 100 µM each time.

As to `Cc1ccc(NC(=O)c2ccc(OP(=O)(O)Nc3ccc(C)cc3)cc2)cc1`, the TGI in [1], in experiment [2], in experiment [3], in experiment [4], in experiment [5] and in experiment [6] was more than 100 µM throughout. For the same compound, the TGI in experiment [7], in [8], in experiment [9] and in experiment [10] was more than 100 µM each time.

With `Cc1cc(Nc2ccc(S(=O)(=O)O)c3cc(S(=O)(=O)O)cc(S(=O)(=O)O)c23)c2ccccc2n1`, the TGI in experiment [1], in experiment [2], in [3], in [4], in experiment [5] and in experiment [6] was more than 100 µM each time. In addition, the TGI in experiment [7], in [8], in [9] and in experiment [10] was more than 100 µM in each case.

Take `Cn1c(=O)c2c(nc3n2CC(C(=O)O)N3)n(C)c1=O` (stereo not given): the TGI in experiment [1], in experiment [2], in experiment [3], in experiment [4], in experiment [5] and in [6] was more than 100 µM throughout. For the same compound, the TGI in [7], in experiment [8], in experiment [9] and in [10] was more than 100 µM each time.

For the compound `Oc1ccc(Cc2cc(Cc3ccc(O)cc3)cc(Cc3ccc(O)cc3)c2)cc1`, the TGI in [1], in [2], in experiment [3], in experiment [4], in experiment [5] and in experiment [6] was more than 50 µM throughout. Also, the TGI in experiment [7], in [8], in [9] and in experiment [10] was more than 50 µM throughout.

In the case of `CCCCOC(=O)Nc1ccc(S(=O)(=O)Nc2ccccc2Cl)cc1`, the TGI in [1] was found to be 34.7 µM; in experiment [2], 58.4 µM; in [3] it was 36 µM; in experiment [4], 55.4 µM; in [5], 36.2 µM; in experiment [6], 37.7 µM. Also, the TGI in experiment [7] is 31.3 µM; in [8], 44.9 µM; in experiment [9], 33.8 µM; in [10], 27.8 µM.

As for `CCCCCC1=CC(=O)C1(Cl)Cl`, the TGI in experiment [1] amounted to 21.2 µM; in experiment [2], 42.1 µM; in experiment [3], 25.1 µM; in experiment [4], 29.5 µM; in experiment [5], 36.8 µM; in [6], 48.8 µM. The TGI in experiment [7] was 40.5 µM; in [8] it was 32.4 µM; in experiment [9], 85.4 µM; in [10] it was 43.3 µM.

In the case of `CC(=O)Nn1c(=S)[nH]c2ccccc21`, the TGI in experiment [1], in experiment [2], in experiment [3], in experiment [4], in [5] and in experiment [6] was more than 100 µM in each case. For the same compound, the TGI in experiment [7], in experiment [8], in [9] and in experiment [10] was more than 100 µM throughout.

As to `CC1(C)O[C@H]2OC(CO[Si](C)(C)C(C)(C)C)C(N=[N+]=[N-])[C@H]2O1` (stereo not given in full), the TGI in experiment [1] worked out at 35.9 µM; in experiment [2], 37 µM; in [3], 48.1 µM; in experiment [4], 35.2 µM; in experiment [5], 60.9 µM; in experiment [6] it was 34.1 µM. Besides, the TGI in [7] came to 52.4 µM; in [8], 38.3 µM; in experiment [9] it was 28.3 µM; in experiment [10], 53 µM.

`Cc1ccnc(NS(=O)(=O)c2ccc(N=[N+]=[N-])cc2)n1`: the TGI in [1], in experiment [2], in experiment [3], in [4], in experiment [5] and in experiment [6] was more than 100 µM each time. For the same compound, the TGI in [7], in experiment [8], in experiment [9] and in experiment [10] was more than 100 µM in each case.

As for `c1ccc2c(c1)Cn1c-2nc2ccccc21`, the TGI in experiment [1], in experiment [2], in experiment [3], in [4], in experiment [5] and in [6] was more than 100 µM throughout. Further, the TGI in [7], in experiment [8], in experiment [9] and in [10] was more than 100 µM throughout.

With `N=c1nnc2ccc(Cl)cc2n1O`, the TGI in experiment [1], in experiment [2], in [3], in experiment [4], in [5] and in [6] was more than 100 µM each time. The TGI in experiment [7], in [8], in [9] and in [10] was more than 100 µM in each case.

Turning to `C[C@]12CCC3C4=C(CCC3C1CCC2=O)C(=O)[C@H]1O[C@H]1C4=O` (stereo not given in full), the TGI stood at 5.18 µM in [1]; 11.5 µM in experiment [2]; 8.38 µM in [3]; 10.4 µM in experiment [4]; 25.4 µM in experiment [5]; 12.8 µM in [6]. In addition, the TGI in [7] came to 4.98 µM; in experiment [8], 2.8 µM; in experiment [9], 28 µM; in experiment [10] it was 31.1 µM.

As for `Cc1ccc(-c2cc(-c3ccco3)c(C#N)c(=S)n2C2OC(CO)C(O)C(O)C2O)cc1` (stereo not given), the GI50 is 8.19 µM and 43.1 µM in experiment [1]; 17.4 µM and > 100 µM in experiment [2]; 16.6 µM and 36.5 µM in experiment [3]; 6.31 µM and 28 µM in [6]; 2.51 µM and 21.9 µM in experiment [9]. The TGI in experiment [1] is 38.4 µM and > 100 µM; in [2] it was more than 100 µM; in experiment [3], 35.6 µM and > 100 µM; in experiment [4] it was more than 100 µM; in experiment [5], more than 100 µM; in [6] it was 54.1 µM and > 100 µM. Moreover, the TGI was more than 100 µM in experiment [7]; more than 100 µM in [8]; 10.7 µM and > 100 µM in experiment [9]; more than 100 µM in [10].

Consider `C=C1CCN2CC[C@@H](OC(=O)/C(C)=C\C)[C@@H]12`, for which the TGI in experiment [1], in experiment [2], in [3], in experiment [4], in [5] and in experiment [6] was more than 100 µM in each case. For the same compound, the TGI in experiment [7], in experiment [8], in experiment [9] and in experiment [10] was more than 100 µM throughout.

With `Cc1ccc(N(Cc2ccccc2)Cc2ccccc2)cc1`, the TGI in [1], in experiment [2], in experiment [3], in [4], in [5] and in experiment [6] was more than 100 µM in each case. Further, the TGI in experiment [7], in [8], in experiment [9] and in experiment [10] was more than 100 µM throughout.

Regarding `Cc1ccccc1OC(C)C(=O)NN1C(=O)CSC1c1ccccc1` (stereo not given), the TGI in [1], in [2], in [3], in experiment [4], in experiment [5] and in experiment [6] was more than 100 µM each time. For the same compound, the TGI in experiment [7], in [8], in experiment [9] and in experiment [10] was more than 100 µM in each case.

With `CCOC(=O)N1CCN(Cc2cc(=O)n3ccc(C)cc3n2)CC1`, the TGI in experiment [1], in [2], in [3], in experiment [4], in [5] and in experiment [6] was more than 100 µM throughout. Moreover, the TGI in [7], in experiment [8], in experiment [9] and in experiment [10] was more than 100 µM throughout.
